This note sets out measurements from US8940739B2, “Compound of a reverse-turn mimetic and a production method and use therefor” (JW Pharmaceutical Corporation, priority 2010, dated 2015).

Data set [1] deals with MV-4-11 (human, Acute Myeloid Leukemia cell line) cells. Description: Cell growth inhibition assay, GI50 of MV-4-11. In kind it is cell-based. To be noted: Homo sapiens, MV4-11, 72 h, MV-4-11 cells. The method in brief: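 GI50 derived from 490 nm absorbance using CellTiter 96 Aqueous One reagent, with compound-free medium providing the background. Human AML MV-4-11 cells, seeded at 5×10^4 per well in IMDM/10% FBS, incubated 72 h at 37 °C with duplicate serial dilutions of test compound.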

Data set [2] deals with cDNA-expressed human hepatic CYP3A4 (Homo sapiens (Human), UniProt P08684). Put plainly: Measurement of CYP (IC50 of P450 CYP3A4), BFC substrate. To be noted: 20 minutes. In kind it is in vitro ADME. The gist of the method: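 cDNA-expressed human CYP3A4 supersomes in 0.1M potassium phosphate pH 7.4 with 8.3 mM MgCl2, 1.67 mM EDTA and 0.25 mM NADPH; compounds in acetonitrile (<1% final). Reaction started with 30 µM BFC, 20 min at 37. 7-Hydroxy-4-trifluoromethyl-coumarin read by fluorescence (ex 409/em 530 nm).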
cDNA-expressed human hepatic CYP3A4, sequence (P08684 whole entry): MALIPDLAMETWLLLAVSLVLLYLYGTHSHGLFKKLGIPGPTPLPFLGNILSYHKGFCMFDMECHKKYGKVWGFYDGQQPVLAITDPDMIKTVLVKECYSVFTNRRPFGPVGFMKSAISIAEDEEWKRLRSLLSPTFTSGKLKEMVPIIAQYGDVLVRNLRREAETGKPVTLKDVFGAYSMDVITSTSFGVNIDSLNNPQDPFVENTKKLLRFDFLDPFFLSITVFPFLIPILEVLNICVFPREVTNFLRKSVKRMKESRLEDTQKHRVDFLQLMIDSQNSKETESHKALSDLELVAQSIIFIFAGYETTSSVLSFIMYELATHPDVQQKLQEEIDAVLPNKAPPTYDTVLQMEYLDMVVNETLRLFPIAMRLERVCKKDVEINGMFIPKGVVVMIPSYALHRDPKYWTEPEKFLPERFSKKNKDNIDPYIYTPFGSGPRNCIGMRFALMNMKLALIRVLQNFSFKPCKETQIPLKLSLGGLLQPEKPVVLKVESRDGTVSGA

In the case of `C=CCN1CC(=O)N2[C@@H](Cc3ccc(O)cc3)C(=O)N(Cc3cccc4c(C(=O)N5CCC(C(=O)OCC)CC5)cn(C)c34)C[C@@H]2N1C(=O)NCc1ccccc1` [Compound E-53], halving of growth in data set [1] (GI50) required 1.9 nM. For the same molecule, in data set [2], the half-maximal inhibitory concentration (IC50) (in general, the concentration at which inhibition is half-maximal) came out at 3860 nM.
Taken in the same sequence, the figures for `C=CCN1CC(=O)N2[C@@H](Cc3ccc(O)cc3)C(=O)N(Cc3cccc4c(C(=O)NC5CCN(C(=O)c6ccc(N(C)C)cc6)CC5)cn(C)c34)C[C@@H]2N1C(=O)NCc1ccccc1` [Compound F-66] were 17.5 nM and 6150 nM.
Taken in the same sequence, the figures for `C=CCN1CC(=O)N2[C@@H](Cc3ccc(O)cc3)C(=O)N(Cc3cccc4c(-c5cnc(N(C)C)nc5)cn(C)c34)C[C@@H]2N1C(=O)NCc1ccccc1` [Compound H-7] were 1.5 nM and 6410 nM.
With `C=CCN1CC(=O)N2[C@@H](Cc3ccc(O)cc3)C(=O)N(Cc3cccc4c(C(=O)Nc5ccc(OCCOC)nc5)cn(C)c34)C[C@@H]2N1C(=O)NCc1ccccc1` [Compound G-11], it took 1.8 nM to inhibit growth in data set [1] by half (GI50). In addition, in data set [2], the IC50 was found to be 7620 nM.
On to `C=CCN1CC(=O)N2[C@@H](Cc3ccc(O)cc3)C(=O)N(Cc3cccc4c(-c5ccc(C(=O)Nc6cccc(OC)c6)cc5)cn(C)c34)C[C@@H]2N1C(=O)NCc1ccccc1` [Compound D-21], for which the GI50 – broadly, the concentration at which growth is held to half of that of the control – in data set [1] worked out at 6.9 nM. This molecule also yielded an IC50 in data set [2] of 6530 nM.
Taken in the same sequence, the figures for `C=CCN1CC(=O)N2[C@@H](Cc3ccc(O)cc3)C(=O)N(Cc3cccc4c(-c5ccc(NC(=O)c6ccc(CN(CC)CC)cc6)cc5)cn(C)c34)C[C@@H]2N1C(=O)NCc1ccccc1` [Compound D-55] were 5.8 nM and 2260 nM.
Taken in the same sequence, the figures for `C=CCN1CC(=O)N2[C@@H](Cc3ccc(O)cc3)C(=O)N(Cc3cccc4c(C(=O)Nc5ccc(NCCN(C)C)nc5)cn(C)c34)C[C@@H]2N1C(=O)NCc1ccccc1` [Compound G-23] were 1.3 nM and 6750 nM.
On to `C=CCN1CC(=O)N2C(CN(Cc3cccc4c(C(=O)Nc5ccc(N6CCC7(CCN(CC)C7)C6)nc5)cn(C)c34)C(=O)[C@@H]2Cc2ccc(O)cc2)N1C(=O)NCc1ccccc1` (stereo partly drawn) [Compound G-65], for which, in data set [1], growth was halved (GI50) at 1.3 nM. In data set [2], the IC50 was determined as 3910 nM.
In data set [1], `C=CCN1CC(=O)N2[C@@H](Cc3ccc(O)cc3)C(=O)N(Cc3cccc4c(-c5ccc(C(=O)Nc6cccc(O)c6)cc5)cn(C)c34)C[C@@H]2N1C(=O)NCc1ccccc1` [Compound D-16] yielded a GI50 of 15.6 nM. Also, half-maximal inhibition in data set [2] (IC50) was put at 8070 nM.
For `C=CCN1CC(=O)N2C(CN(Cc3cccc4c(C(=O)Nc5ccc(N6CCN(C(C)C)CC6)nc5)cn(C)c34)C(=O)[C@@H]2Cc2ccc(O)cc2)N1C(=O)NCc1ccccc1` (stereo partly drawn) [Compound G-46], in that order: 1.3 nM and 6120 nM.
In data set [1], `C=CCN1CC(=O)N2[C@@H](Cc3ccc(O)cc3)C(=O)N(Cc3cccc4c(-c5ccc(NC(=O)NC6CCN(C)CC6)nc5)cn(C)c34)C[C@@H]2N1C(=O)NCc1ccccc1` [Compound D-98] yielded a concentration for 50% growth inhibition (GI50) of 23 nM. In data set [2], this molecule came in with a concentration for half-maximal inhibition (IC50) of 2920 nM.
For `C=CCN1CC(=O)N2[C@@H](Cc3ccc(O)cc3)C(=O)N(Cc3cccc4c(-c5ccc(C(=O)Nc6ccccc6)cc5)cn(C)c34)C[C@@H]2N1C(=O)NCc1ccccc1` [Compound D-17], it took 6.9 nM to inhibit growth in data set [1] by half (GI50). In data set [2], half-maximal inhibition (IC50) was put at 7630 nM.
Taken in the same sequence, the figures for `C=CCN1CC(=O)N2[C@@H](Cc3ccc(O)cc3)C(=O)N(Cc3cccc4c(C(=O)NCc5ccc(N(C)C)nc5)cn(C)c34)C[C@@H]2N1C(=O)NCc1ccccc1` [Compound F-47] were 6.9 nM and 2050 nM.
For `C=CCN1CC(=O)N2[C@@H](Cc3ccc(O)cc3)C(=O)N(Cc3cccc4c(C(=O)N5CC(N6CCC(OC)CC6)C5)cn(C)c34)C[C@@H]2N1C(=O)NCc1ccccc1` [Compound E-73], in that order: 19.3 nM and 11800 nM.
For `C=CCN1CC(=O)N2C(Cc3ccc(O)cc3)C(=O)N(Cc3cccc4c(C(=O)Nc5ccc(N6CCC(N7CCCCC7)CC6)nc5)cn(C)c34)CC2N1C(=O)NCc1ccccc1` (stereo not drawn) [Compound G-55], in that order: 1.3 nM and 2370 nM.
`C=CCN1CC(=O)N2C(Cc3ccc(O)cc3)C(=O)N(Cc3cccc4c(C(=O)Nc5ccc(N6CCN(C(C)=O)CC6)nc5)cn(C)c34)CC2N1C(=O)NCc1ccccc1` (stereo not drawn) [Compound G-53]: it took 1.3 nM to inhibit growth in data set [1] by half (GI50). The molecule also came in with a 50% inhibitory concentration (IC50) in data set [2] of more than 25000 nM.
With `C=CCN1CC(=O)N2[C@@H](Cc3ccc(O)cc3)C(=O)N(Cc3cccc4c(-c5ccc(C(=O)NN6CCN(c7ccccn7)CC6)cc5)cn(C)c34)C[C@@H]2N1C(=O)NCc1ccccc1` [Compound D-44], the GI50 in data set [1] stood at 19.5 nM. This molecule came in with a concentration for half-maximal inhibition (IC50) in data set [2] of more than 25000 nM.
Regarding `C=CCN1CC(=O)N2[C@@H](Cc3ccc(O)cc3)C(=O)N(Cc3cccc4c(-c5ccc(NC(=O)c6ccccc6)cc5)cn(C)c34)C[C@@H]2N1C(=O)NCc1ccccc1` [Compound D-48], the GI50 in data set [1] was found to be 1.9 nM. Further, in data set [2], the IC50 is more than 25000 nM.
`C=CCN1CC(=O)N2[C@@H](Cc3ccc(O)cc3)C(=O)N(Cc3cccc4c(C(=O)Nc5ccc(OCCN(C)C)nc5)cn(C)c34)C[C@@H]2N1C(=O)NCc1ccccc1` [Compound G-12] yielded a GI50 in data set [1] of 9.9 nM. Also, inhibition in data set [2] was half-maximal at 10100 nM (IC50).
Taken in the same sequence, the figures for `C=CCN1CC(=O)N2C(Cc3ccc(O)cc3)C(=O)N(Cc3cccc4c(C(=O)Nc5ccc(N6CCN(CCC)CC6)nc5)cn(C)c34)CC2N1C(=O)NCc1ccccc1` (stereo not drawn) [Compound G-43] were 1.3 nM and 6940 nM.
Molecule `C=CCN1CC(=O)N2[C@@H](Cc3ccc(O)cc3)C(=O)N(Cc3cccc4c(C(=O)Nc5ccc(OC(C)(C)C)cc5)cn(C)c34)C[C@@H]2N1C(=O)NCc1ccccc1` [Compound G-6] had a GI50 in data set [1] of 14 nM. This molecule gave a half-inhibitory concentration (IC50) in data set [2] of 19100 nM.
For `C=CCN1CC(=O)N2C(CN(Cc3cccc4c(C(=O)Nc5ccc(N6CCC7CCCN7C6)nc5)cn(C)c34)C(=O)[C@@H]2Cc2ccc(O)cc2)N1C(=O)NCc1ccccc1` (stereo partly drawn) [Compound G-66], the GI50 in data set [1] was determined as 1.3 nM. The molecule also gave a concentration for half-maximal inhibition (IC50) in data set [2] of 4600 nM.
Taken in the same sequence, the figures for `C=CCN1CC(=O)N2[C@@H](Cc3ccc(O)cc3)C(=O)N(Cc3cccc4c(C(=O)NCCCOC)cn(C)c34)C[C@@H]2N1C(=O)NCc1ccccc1` [Compound F-6] were 11.9 nM and 3840 nM.
As for `C=CCN1CC(=O)N2[C@@H](Cc3ccc(O)cc3)C(=O)N(Cc3cccc4c(-c5ccc(C(=O)Nc6cccc(OC(C)C)c6)cc5)cn(C)c34)C[C@@H]2N1C(=O)NCc1ccccc1` [Compound D-26], the concentration for 50% growth inhibition (GI50) in data set [1] came to 19 nM. In data set [2], this molecule had an IC50 of 13700 nM.
In the case of `C=CCN1CC(=O)N2[C@@H](Cc3ccc(O)cc3)C(=O)N(Cc3cccc4c(-c5cnc6ccccc6c5)cn(C)c34)C[C@@H]2N1C(=O)NCc1ccccc1` [Compound H-6], in data set [1], it took 9.7 nM to inhibit growth by half (GI50). This molecule also displayed an IC50 in data set [2] of 2090 nM.
For `C=CCN1CC(=O)N2[C@@H](Cc3ccc(O)cc3)C(=O)N(Cc3cccc4c(-c5ccc(C(=O)N6CCN(C)CC6)nc5)cn(C)c34)C[C@@H]2N1C(=O)NCc1ccccc1` [Compound D-91], in that order: 1.3 nM and 6510 nM.
Taken in the same sequence, the figures for `C=CCN1CC(=O)N2[C@@H](Cc3ccc(O)cc3)C(=O)N(Cc3cccc4c(C(=O)Nc5ccc(N6CCC(OC)CC6)nc5)cn(C)c34)C[C@@H]2N1C(=O)NCc1ccccc1` [Compound G-38] were 0.6 nM and 2210 nM.
